Measured values published in ChEMBL document CHEMBL1151360, “Antibiotic principle of Eupatorium capillifolium” (1981).
Activity calls are given as the source filed them. The rule behind the calls is not given here.

Columns and labels:
Bacillus subtilis [1] = assay: Antibacterial activity against Bacillus subtilis ATCC 6633 at 750 ug/mL in complex natural medium by disc-plate assay; format: functional, organism-based
Bacillus subtilis [2] = assay: Antibacterial activity against Bacillus subtilis ATCC 6633 at 120 ug/mL in synthetic medium by disc-plate assay; format: functional; conditions: read-out: IZ
Bacillus subtilis [3] = assay: Antibacterial activity against Bacillus subtilis ATCC 6633 at 750 ug/mL in synthetic medium by disc-plate assay in presence of 10 ug/mL glutamic acid; format: functional
Bacillus subtilis [4] = assay: Antibacterial activity against Bacillus subtilis ATCC 6633 at 750 ug/mL in synthetic medium by disc-plate assay in presence of 30 ug/mL glutamic acid; format: functional
Bacillus subtilis [5] = assay: Antibacterial activity against Bacillus subtilis ATCC 6633 at 500 ug/mL in synthetic medium by disc-plate assay; format: functional; conditions: read-out: IZ
Bacillus subtilis [6] = assay: Antibacterial activity against Bacillus subtilis ATCC 6633 at 750 ug/mL in synthetic medium by disc-plate assay in presence of 250 ug/mL glutamic acid; format: functional
Bacillus subtilis [7] = assay: Antibacterial activity against Bacillus subtilis ATCC 6633 at 750 ug/mL in synthetic medium by disc-plate assay in presence of 1000 ug/mL glutamic acid; format: functional
Bacillus subtilis [8] = assay: Antibacterial activity against Bacillus subtilis ATCC 6633 at 750 ug/mL in synthetic medium by disc-plate assay in presence of 3000 ug/mL glutamic acid; format: functional
Escherichia coli [9] = assay: Antibacterial activity against Escherichia coli ATCC 10536 in complex natural medium by disc-plate assay; format: functional, organism-based
Bacillus subtilis [10] = assay: Antibacterial activity against Bacillus subtilis ATCC 6633 at 15 ug/mL in synthetic medium by disc-plate assay; format: functional; conditions: read-out: IZ
Bacillus subtilis [11] = assay: Antibacterial activity against Bacillus subtilis ATCC 6633 at 750 ug/mL in synthetic medium by disc-plate assay; format: functional; conditions: read-out: IZ
Staphylococcus aureus = assay: Antibacterial activity against Staphylococcus aureus ATCC 6538P in complex natural medium by disc-plate assay; format: functional, organism-based
Bacillus subtilis [12] = assay: Antibacterial activity against Bacillus subtilis ATCC 6633 at 30 ug/mL in synthetic medium by disc-plate assay; format: functional; conditions: read-out: IZ
Bacillus subtilis [13] = assay: Antibacterial activity against Bacillus subtilis ATCC 6633 at 750 ug/mL in synthetic medium by disc-plate assay in presence of 5000 ug/mL glutamic acid; format: functional
Bacillus subtilis [14] = assay: Antibacterial activity against Bacillus subtilis ATCC 6633 at 750 ug/mL in synthetic medium by disc-plate assay in presence of 500 ug/mL glutamic acid; format: functional
Escherichia coli [15] = assay: Antibacterial activity against Escherichia coli ATCC 10536 in synthetic medium by disc-plate assay; format: functional, organism-based
Bacillus subtilis [16] = assay: Antibacterial activity against Bacillus subtilis ATCC 6633 at 750 ug/mL in synthetic medium by disc-plate assay in presence of 120 ug/mL glutamic acid; format: functional
Bacillus subtilis [17] = assay: Antibacterial activity against Bacillus subtilis ATCC 6633 at 60 ug/mL in synthetic medium by disc-plate assay; format: functional; conditions: read-out: IZ
Bacillus subtilis [18] = assay: Antibacterial activity against Bacillus subtilis ATCC 6633 at 750 ug/mL in synthetic medium by disc-plate assay in presence of 60 ug/mL glutamic acid; format: functional
Bacillus subtilis [19] = assay: Antibacterial activity against Bacillus subtilis ATCC 6633 at 750 ug/mL in synthetic medium by disc-plate assay in presence of 750 ug/mL glutamic acid; format: functional
Bacillus subtilis [20] = assay: Antibacterial activity against Bacillus subtilis ATCC 6633 at 250 ug/mL in synthetic medium by disc-plate assay; format: functional; conditions: read-out: IZ

`C=C(C(=O)O)[C@@H]1CC[C@@]2(C)CCCC(=C)[C@@H]2C1` [COSTIC ACID] was tested, and the Activity (Bacillus subtilis [1]) was “inactive”, the zone of inhibition at 120 µg/mL (Bacillus subtilis [2]) was 19 mm and the “inhibition (INH)” value (Bacillus subtilis [3]) was 0%. For the same compound, the “inhibition zone (IZ)” value (Bacillus subtilis [3]) was 26 mm, the “inhibition (INH)” value (Bacillus subtilis [4]) was 40% and the “inhibition zone (IZ)” value (Bacillus subtilis [4]) was 24 mm. For the same compound, the zone of inhibition at 500 µg/mL (Bacillus subtilis [5]) was 24 mm, the “inhibition (INH)” value (Bacillus subtilis [6]) was 74% and the “inhibition zone (IZ)” value (Bacillus subtilis [6]) was 21 mm. The “inhibition (INH)” value (Bacillus subtilis [7]) was 89%, the “inhibition zone (IZ)” value (Bacillus subtilis [7]) was 18 mm and the “inhibition (INH)” value (Bacillus subtilis [8]) was 89%. The “inhibition zone (IZ)” value (Bacillus subtilis [8]) was 18 mm, the Activity (Escherichia coli [9]) was “inactive” and the zone of inhibition at 15 µg/mL (Bacillus subtilis [10]) was 0 mm. For the same compound, the zone of inhibition at 750 µg/mL (Bacillus subtilis [11]) was 26 mm, the Activity (Staphylococcus aureus) was “inactive” and the zone of inhibition at 30 µg/mL (Bacillus subtilis [12]) was 14.5 mm. The “inhibition (INH)” value (Bacillus subtilis [13]) was 89%, the “inhibition zone (IZ)” value (Bacillus subtilis [13]) was 18 mm and the “inhibition (INH)” value (Bacillus subtilis [14]) was 80%. For the same compound, the “inhibition zone (IZ)” value (Bacillus subtilis [14]) was 20 mm, the Activity (Escherichia coli [15]) was “inactive” and the “inhibition (INH)” value (Bacillus subtilis [16]) was 74%. The “inhibition zone (IZ)” value (Bacillus subtilis [16]) was 21 mm, the zone of inhibition at 60 µg/mL (Bacillus subtilis [17]) was 16.5 mm and the “inhibition (INH)” value (Bacillus subtilis [18]) was 60%. For the same compound, the “inhibition zone (IZ)” value (Bacillus subtilis [18]) was 22.5 mm, the inhibition at 750 µg/mL (Bacillus subtilis [19]) was 85% and the zone of inhibition at 750 µg/mL (Bacillus subtilis [19]; read-out: IZ) was 19 mm. The zone of inhibition at 250 µg/mL (Bacillus subtilis [20]) was 22 mm.
